Measured values: ChEMBL document CHEMBL2157914, “Synthesis, anti-inflammatory and antimicrobial evaluation of novel 1-acetyl-3,5-diaryl-4,5-dihydro (1H) pyrazole derivatives bearing urea, thiourea and sulfonamide moieties” (2012)
Values after ≈ are worked out from the molar mass of the structure shown. Active and inactive are the calls of the source. The calls are words filed in the database; no cut-off is given here.

system: Aspergillus flavus; assay: Antifungal activity against Aspergillus flavus MTCC 277 up to 200 ug/mL after 2 to 3 days by agar well diffusion method; format: functional, organism-based; details: not given

With `COc1ccc(C2=NN(C(C)=O)C(c3ccc(N)cc3)C2)cc1OC` (centres undefined) the Activity was “inactive”.

system: Salmonella typhimurium; assay: Antibacterial activity against Salmonella typhimurium MTCC 98 up to 200 ug/mL after 24 hrs by agar well diffusion method; format: functional, organism-based; details: Salmonella enterica subsp. enterica serovar Typhimurium

For `COc1ccc(C2=NN(C(C)=O)C(c3ccc(N)cc3)C2)cc1OC` (centres undefined), the Activity was “inactive”.

system: Candida albicans; assay: Antifungal activity against Candida albicans MTCC 227 after 2 to 3 days by agar well diffusion method; format: functional; details: not given

Compared with `COc1ccc(C2=NN(C(C)=O)C(c3ccc(NS(=O)(=O)c4ccc(Br)cc4)cc3)C2)cc1OC` (centres undefined), `COc1ccc(C2=NN(C(C)=O)C(c3ccc(NS(=O)(=O)c4ccccc4C#N)cc3)C2)cc1OC` (centres undefined) is 2.6-fold higher in MIC: 25 µg/mL (≈ 44.8 µM) for the first, 65 µg/mL (≈ 129 µM) for the second.

Going from `Clc1ccc(COC(Cn2ccnc2)c2ccc(Cl)cc2Cl)c(Cl)c1` (centres undefined) [MICONAZOLE] to `COc1ccc(C2=NN(C(C)=O)C(c3ccc([N+](=O)[O-])cc3)C2)cc1OC` (centres undefined), the MIC rises from 20 µg/mL (≈ 48.1 µM) to 90 µg/mL (≈ 244 µM) (4.5-fold).

`COc1ccc(NC(=S)Nc2ccc(C3CC(c4ccc(OC)c(OC)c4)=NN3C(C)=O)cc2)cc1` (centres undefined) was tested, and the MIC was 90 µg/mL (≈ 178 µM).

system: Aspergillus flavus; assay: Antifungal activity against Aspergillus flavus MTCC 277 after 2 to 3 days by agar well diffusion method; format: functional; details: not given

First: COc1ccc(C2=NN(C(C)=O)C(c3ccc(NS(=O)(=O)c4ccc(Br)cc4)cc3)C2)cc1OC (centres undefined)
Second: COc1ccc(C2=NN(C(C)=O)C(c3ccc(NS(=O)(=O)c4ccccc4C#N)cc3)C2)cc1OC (centres undefined)
The MIC of the first is 1.8-fold lower: 40 µg/mL (≈ 71.6 µM) for the first, 70 µg/mL (≈ 139 µM) for the second.

Compared with `Clc1ccc(COC(Cn2ccnc2)c2ccc(Cl)cc2Cl)c(Cl)c1` (centres undefined) [MICONAZOLE], `COc1ccc(C2=NN(C(C)=O)C(c3ccc([N+](=O)[O-])cc3)C2)cc1OC` (centres undefined) is 4.5-fold higher in MIC: 20 µg/mL (≈ 48.1 µM) for the first, 90 µg/mL (≈ 244 µM) for the second.

`COc1ccc(NC(=S)Nc2ccc(C3CC(c4ccc(OC)c(OC)c4)=NN3C(C)=O)cc2)cc1` (centres undefined) showed an MIC of 90 µg/mL (≈ 178 µM).

system: THP-1; assay: Antiinflammatory activity in human THP1 cells assessed as inhibition of LPS-stimulated IL-6 production at 10 uM incubated for 30 mins prior to LPS-challenge measured 24 hrs post LPS-challenge by ELISA; format: functional; details: not given

First: COc1ccc(C2=NN(C(C)=O)C(c3ccc(NS(=O)(=O)c4ccc(Br)cc4)cc3)C2)cc1OC (centres undefined)
Second: COc1ccc(C2=NN(C(C)=O)C(c3ccc(NS(=O)(=O)c4ccccc4C#N)cc3)C2)cc1OC (centres undefined)
The inhibition at 10 µM of the first is lower: 0% for the first, 31% for the second.

`COc1ccc(C2=NN(C(C)=O)C(c3ccc([N+](=O)[O-])cc3)C2)cc1OC` (centres undefined) and `COc1ccc(C2=NN(C(C)=O)C(c3ccc(N)cc3)C2)cc1OC` (centres undefined) are the same in inhibition at 10 µM: 0% for the first, 0% for the second.

`COc1ccc(NC(=S)Nc2ccc(C3CC(c4ccc(OC)c(OC)c4)=NN3C(C)=O)cc2)cc1` (centres undefined) showed an inhibition at 10 µM of 10%.

system: Aspergillus niger; assay: Antifungal activity against Aspergillus niger MTCC 281 after 2 to 3 days by agar well diffusion method; format: functional; details: not given

Going from `COc1ccc(C2=NN(C(C)=O)C(c3ccc(NS(=O)(=O)c4ccc(Br)cc4)cc3)C2)cc1OC` (centres undefined) to `COc1ccc(C2=NN(C(C)=O)C(c3ccc(NS(=O)(=O)c4ccccc4C#N)cc3)C2)cc1OC` (centres undefined), the MIC rises from 15 µg/mL (≈ 26.9 µM) to 40 µg/mL (≈ 79.3 µM) (2.7-fold).

Going from `Clc1ccc(COC(Cn2ccnc2)c2ccc(Cl)cc2Cl)c(Cl)c1` (centres undefined) [MICONAZOLE] to `COc1ccc(C2=NN(C(C)=O)C(c3ccc([N+](=O)[O-])cc3)C2)cc1OC` (centres undefined), the MIC rises from 15 µg/mL (≈ 36 µM) to 90 µg/mL (≈ 244 µM) (6-fold).

system: Bacillus subtilis; assay: Antibacterial activity against Bacillus subtilis MTCC 441 after 24 hrs by agar well diffusion method; format: functional; details: MTCC 441, 24 h

`COc1ccc(C2=NN(C(C)=O)C(c3ccc(NS(=O)(=O)c4ccc(Br)cc4)cc3)C2)cc1OC` (centres undefined) and `COc1ccc(C2=NN(C(C)=O)C(c3ccc(NS(=O)(=O)c4ccccc4C#N)cc3)C2)cc1OC` (centres undefined) are the same in MIC: 65 µg/mL (≈ 116 µM) for the first, 65 µg/mL (≈ 129 µM) for the second.

`COc1ccc(C2=NN(C(C)=O)C(c3ccc([N+](=O)[O-])cc3)C2)cc1OC` (centres undefined) and `COc1ccc(NC(=S)Nc2ccc(C3CC(c4ccc(OC)c(OC)c4)=NN3C(C)=O)cc2)cc1` (centres undefined) are within 1.5-fold of each other in MIC: 50 µg/mL (≈ 135 µM) for the first, 65 µg/mL (≈ 129 µM) for the second.

system: Staphylococcus aureus; assay: Antibacterial activity against Staphylococcus aureus MTCC 96 after 24 hrs by agar well diffusion method; format: functional; details: MTCC 96, 24 h

Going from `COc1ccc(C2=NN(C(C)=O)C(c3ccc(NS(=O)(=O)c4ccc(Br)cc4)cc3)C2)cc1OC` (centres undefined) to `COc1ccc(C2=NN(C(C)=O)C(c3ccc(NS(=O)(=O)c4ccccc4C#N)cc3)C2)cc1OC` (centres undefined), the MIC rises from 30 µg/mL (≈ 53.7 µM) to 80 µg/mL (≈ 159 µM) (2.7-fold).

Compared with `COc1ccc(C2=NN(C(C)=O)C(c3ccc([N+](=O)[O-])cc3)C2)cc1OC` (centres undefined), `COc1ccc(NC(=S)Nc2ccc(C3CC(c4ccc(OC)c(OC)c4)=NN3C(C)=O)cc2)cc1` (centres undefined) is 2-fold lower in MIC: 90 µg/mL (≈ 244 µM) for the first, 45 µg/mL (≈ 89.2 µM) for the second.

system: Staphylococcus aureus; assay: Antibacterial activity against Staphylococcus aureus MTCC 96 up to 200 ug/mL after 24 hrs by agar well diffusion method; format: functional, organism-based; details: not given

For `COc1ccc(C2=NN(C(C)=O)C(c3ccc(N)cc3)C2)cc1OC` (centres undefined), the Activity was “inactive”.

system: Aspergillus niger; assay: Antifungal activity against Aspergillus niger MTCC 281 up to 200 ug/mL after 2 to 3 days by agar well diffusion method; format: functional, organism-based; details: not given

In the case of `COc1ccc(NC(=S)Nc2ccc(C3CC(c4ccc(OC)c(OC)c4)=NN3C(C)=O)cc2)cc1` (centres undefined), the Activity is reported as “inactive”.
With `COc1ccc(C2=NN(C(C)=O)C(c3ccc(N)cc3)C2)cc1OC` (centres undefined) the Activity was “inactive”.

system: Escherichia coli; assay: Antibacterial activity against Escherichia coli MTCC 443 after 24 hrs by agar well diffusion method; format: functional; details: MTCC 443, 24 h

First: COc1ccc(C2=NN(C(C)=O)C(c3ccc(NS(=O)(=O)c4ccc(Br)cc4)cc3)C2)cc1OC (centres undefined)
Second: COc1ccc(C2=NN(C(C)=O)C(c3ccc(NS(=O)(=O)c4ccccc4C#N)cc3)C2)cc1OC (centres undefined)
The MIC of the first is 3-fold lower: 30 µg/mL (≈ 53.7 µM) for the first, 90 µg/mL (≈ 178 µM) for the second.

`COc1ccc(C2=NN(C(C)=O)C(c3ccc([N+](=O)[O-])cc3)C2)cc1OC` (centres undefined) and `COc1ccc(C2=NN(C(C)=O)C(c3ccc(N)cc3)C2)cc1OC` (centres undefined) are within 1.5-fold of each other in MIC: 65 µg/mL (≈ 176 µM) for the first, 90 µg/mL (≈ 265 µM) for the second.

With `COc1ccc(NC(=S)Nc2ccc(C3CC(c4ccc(OC)c(OC)c4)=NN3C(C)=O)cc2)cc1` (centres undefined) the MIC was 20 µg/mL (≈ 39.6 µM).

system: Bacillus subtilis; assay: Antibacterial activity against Bacillus subtilis MTCC 441 up to 200 ug/mL after 24 hrs by agar well diffusion method; format: functional, organism-based; details: not given

In the case of `COc1ccc(C2=NN(C(C)=O)C(c3ccc(N)cc3)C2)cc1OC` (centres undefined), the Activity is reported as “inactive”.

system: Candida albicans; assay: Antifungal activity against Candida albicans MTCC 227 up to 200 ug/mL after 2 to 3 days by agar well diffusion method; format: functional, organism-based; details: not given

`COc1ccc(C2=NN(C(C)=O)C(c3ccc(N)cc3)C2)cc1OC` (centres undefined) was tested, and the Activity was “inactive”.

system: Fusarium solani; assay: Antifungal activity against Fusarium solani MTCC 350 up to 200 ug/mL after 2 to 3 days by agar well diffusion method; format: functional, organism-based; details: not given

For `COc1ccc(C2=NN(C(C)=O)C(c3ccc([N+](=O)[O-])cc3)C2)cc1OC` (centres undefined), the Activity was “inactive”.
For `COc1ccc(C2=NN(C(C)=O)C(c3ccc(N)cc3)C2)cc1OC` (centres undefined), the Activity was “inactive”.

system: THP-1; assay: Antiinflammatory activity in human THP1 cells assessed as inhibition of LPS-stimulated TNFalpha production at 10 uM incubated for 30 mins prior to LPS-challenge measured 24 hrs post LPS challenge by ELISA; format: functional; details: not given

Compared with `COc1ccc(C2=NN(C(C)=O)C(c3ccc(NS(=O)(=O)c4ccc(Br)cc4)cc3)C2)cc1OC` (centres undefined), `COc1ccc(C2=NN(C(C)=O)C(c3ccc(NS(=O)(=O)c4ccccc4C#N)cc3)C2)cc1OC` (centres undefined) is higher in inhibition at 10 µM: 0% for the first, 10% for the second.

`COc1ccc(C2=NN(C(C)=O)C(c3ccc([N+](=O)[O-])cc3)C2)cc1OC` (centres undefined) and `COc1ccc(C2=NN(C(C)=O)C(c3ccc(N)cc3)C2)cc1OC` (centres undefined) are the same in inhibition at 10 µM: 0% for the first, 0% for the second.

In the case of `COc1ccc(NC(=S)Nc2ccc(C3CC(c4ccc(OC)c(OC)c4)=NN3C(C)=O)cc2)cc1` (centres undefined), the inhibition at 10 µM is reported as 3%.

system: Fusarium solani; assay: Antifungal activity against Fusarium solani MTCC 350 after 2 to 3 days by agar well diffusion method; format: functional; details: not given

Going from `COc1ccc(C2=NN(C(C)=O)C(c3ccc(NS(=O)(=O)c4ccc(Br)cc4)cc3)C2)cc1OC` (centres undefined) to `COc1ccc(C2=NN(C(C)=O)C(c3ccc(NS(=O)(=O)c4ccccc4C#N)cc3)C2)cc1OC` (centres undefined), the MIC rises from 15 µg/mL (≈ 26.9 µM) to 80 µg/mL (≈ 159 µM) (5.3-fold).

Going from `Clc1ccc(COC(Cn2ccnc2)c2ccc(Cl)cc2Cl)c(Cl)c1` (centres undefined) [MICONAZOLE] to `COc1ccc(NC(=S)Nc2ccc(C3CC(c4ccc(OC)c(OC)c4)=NN3C(C)=O)cc2)cc1` (centres undefined), the MIC rises from 15 µg/mL (≈ 36 µM) to 90 µg/mL (≈ 178 µM) (6-fold).

system: Salmonella typhimurium; assay: Antibacterial activity against Salmonella typhimurium MTCC 98 after 24 hrs by agar well diffusion method; format: functional, Salmonella enterica subsp. enterica serovar Typhimurium; details: Salmonella enterica, MTCC 98, 24 h

First: COc1ccc(C2=NN(C(C)=O)C(c3ccc(NS(=O)(=O)c4ccc(Br)cc4)cc3)C2)cc1OC (centres undefined)
Second: COc1ccc(C2=NN(C(C)=O)C(c3ccc(NS(=O)(=O)c4ccccc4C#N)cc3)C2)cc1OC (centres undefined)
The MIC of the first is 3-fold lower: 30 µg/mL (≈ 53.7 µM) for the first, 90 µg/mL (≈ 178 µM) for the second.

First: COc1ccc(C2=NN(C(C)=O)C(c3ccc([N+](=O)[O-])cc3)C2)cc1OC (centres undefined)
Second: COc1ccc(NC(=S)Nc2ccc(C3CC(c4ccc(OC)c(OC)c4)=NN3C(C)=O)cc2)cc1 (centres undefined)
The MIC of the first is 2.6-fold higher: 90 µg/mL (≈ 244 µM) for the first, 35 µg/mL (≈ 69.4 µM) for the second.
